Tests used:
[1] = test system: urease; type: biochemical; details: pH 7.2
[2] = test system: urease; type: biochemical; details: pH 5.4

Row | SMILES | % Inhibition Cazenovia Soil [1] | % Inhibition Wisconsin Soil [2]
1 | NP(N)(=O)OCC(F)(F)F [Experiment 1] | 97% | 90%
2 | NP(N)(=O)OCC(Cl)(Cl)Cl [Experiment 2] | 97% | 87%
3 | NP(N)(=O)OCCBr [Experiment 3] | 85% | 
4 | NP(N)(=O)OCCCl [Experiment 4] | 84% | 
5 | C=CCOP(N)(N)=O [Experiment 6] | 65% | 38%
6 | NP(N)(=O)OCc1ccccc1 [Experiment 7] | 69% | 20%
7 | NP(N)(=O)OCCCCl [Experiment 8] | 41% | 22%
8 | COP(N)(N)=O [Experiment 9] | 34% | 
9 | CCCOP(N)(N)=O [Experiment 10] | 15% | 
10 | NP(N)(=O)OC1CCCCC1 [Experiment 11] | 85% | 
11 | NP(N)(=O)OC1C(Cl)(Cl)CCCC1(Cl)Cl [Experiment 12] | 38% | 
